This note sets out measurements from patent US20030003440A1, “Novel CCR5 epitope and antibodies against it” (priority 2001, published 2003).

Assay [1] relates to anti-CCR5 Abs. The assay can be described thus: Epitope mapping of anti-CCR5 Abs on peptide/beads, assayed in the Mip1β binding inhibition assay. Also noted: species or system human. The note with it: for Binding of anti-CCR5 Abs to peptide: Abs from ESN sera bound to peptide/beads, eluted, tested in Mip1β binding inhibition assay, FIG. 1. How it is done: Coupling of CCR5 peptides to tosyl-activated Dynabeads M280 (Dynal, Oslo, Norway) was obtained following standard procedures. Briefly, 3×10^7 beads were incubated with 9 μg of CCR5 peptides in 50 mM borate buffer pH 9,5 (16 h at 37° C.). After 4 washes in PBS, peptide/beads were ready for use.
Binding of anti-CCR5 specific Igs to peptide/beads was obtained by incubating 9 μg Ig's to 9 μg peptide/beads for 1 h at 4° C. Ig's were eluted in 0.5 M acetic acid, dialyzed against RPMI medium, then tested in Mip1β binding assays and/or in HIV neutralization assays. To establish if the region recognized by anti-CCR5 antibodies corresponds to a conformational epitope, the specific peptide/beads were incubated with 10 mM of βME, and subsequently with 300 mM of N-Ethyl Maleimide (final concentration: 30 mM) for 60 min prior to antibody binding.
The assay was performed as described (Trkola, A. et al., 1996, Nature 384:184). Briefly, 10^6 purified CD4^+ cells in 200 μl of RPMI (Gibco-Life Technologies, Milan, Italy)(containing 0.05 M NaN3, 1% BSA and 25 mM HEPES) were incubated with appropriate dilutions of affinity-purified anti-CCR5 Abs (Example 1); after 45 min of incubation ^125I-Mip1β (Dupont-NEN, Mechelem, Belgium) was added (final concentration 0.1 nM, 0.2 μCi), and the cells were further incubated for 2 h on ice. Unbound radioactivity was separated by centrifugation on a two-step gradient (Grassi, F. et al., 1991, J. Exp. Med. 174:53) in 0.3 ml tubes (Nunc, Roskilde, Denmark) as follows: the lower layer consisted of fetal calf serum (FCS) containing 10% sucrose; the upper layer consisted of 80% silicone (Sigma-Aldrich) and 20% mineral oil (Sigma-Aldrich). The bound radioactivity in the cell pellets was measured in a gamma counter. Serum samples were diluted 1:10 (5 replicas for each sample). A specificity control consisting of a 100-fold excess of unlabeled Mip1β was included in all experiments. The binding of the ^125I-Mip1β to activated CD4^+ cells ranged between 1000 and 6000 CPM. The cut-off value was set at 12% (3 SD above the mean value of the 45 USN serum samples).

The target of assay [2] is T1, peptide 3 from CCR5 (Homo sapiens, UniProt P51681).
T1 construct: made in house; host or cells: chemical solid-phase synthesis
The assay can be described thus: Immunization of mice with KLH-conjugated peptide; binding of mice sera to peptide 3 by ELISA. Format: in vivo. The note with it: BALB/c mice, i.p. every 15 days, three immunizations, KLH conjugate 50 μg/dose; FIG. 3. How it is done:
BALB/c mice were immunized i.p. every 15 days with peptide 3 or with an unrelated control peptide (VQGEESNDK); both peptides had previously been conjugated to KLH (50 μg/dose). Serum was monitored for the presence of antibodies against the immunogens. After three immunizations the mice were sacrificed and sera were tested in direct binding on pep 3.
Binding of mice sera to peptide 3 was obtained by ELISA. Microwells plates were coated with Beads/pep 3 (10^7beads). The plates were satured for 1 h with PBS and 3% BSA. Different dilutions of mice antisera ( 1/10, 1/50, 1/250 and 1/1000) were added and incubated for 2 h at r.t. […] The enzimatic reaction was developed and read at 492 nm.

For the substance CSSHFPYSQYQFWKNFQTLKc [compound 4], in assay [1], the “Binding of anti-CCR5 Abs to peptide” value was “no binding”.

Consider “FQEFFGLNNCSSSNR [compound 5, peptide of the extramembrane region of CCR5]”, for which, in assay [1], the “Binding of anti-CCR5 Abs to peptide” value is recorded as “no binding”.

On to “VQGEESNDK [control peptide, unrelated control peptide conjugated to KLH, reference compound]”, for which the “Binding on pep 3 of sera of immunized mice (ELISA)” value in assay [2] is on record as “no binding”.

Regarding “YYTSEPCQKINVKQIAARLLP [compound 2, peptide of the extramembrane region of CCR5]”, in assay [1], the “Binding of anti-CCR5 Abs to peptide” value is “no binding”.

Consider cMDYQVSSPIYDINYYTSEPC [compound 1], for which the “Binding of anti-CCR5 Abs to peptide” value in assay [1] was “no binding”.

In the case of “cYAAAQWDFGNTMCQ (N-terminal Cys added; UniProt P51681 89-102, looked up, fragment) [peptide 3, second external domain of CCR5 (first cysteine loop, aa 89-102) with Cys added at the N-terminus]”, the “Binding of anti-CCR5 Abs to peptide” value in assay [1] was “Specific Ab binding”. Besides, the “Binding of anti-CCR5 Abs to peptide after reduction and alkylation” value in assay [1] (addition of 2-ME and N-ethyl maleimide) is “abolished”. The “Binding on pep 3 of sera of immunized mice (ELISA)” value in assay [2] was “specific binding”.
